Data on eleven molecules can be found in patent US8614218B2, “Fused bicyclic pyrimidines” (Bayer Intellectual Property GmbH, priority 2007, dated 2013).

The subject of one assay is phospho-GSK3 (Ser9). The assay can be described thus: Cellular pGSK3 assay (phospho-GSK3 ELISA). In kind it is cell-based. To be noted: Homo sapiens, MCF7 cells, 48 h incubation, read-out: Cellular pGSK3 pathway assay. The protocol:
In order to study the cellular activity of the compounds according to the present invention, an ELISA-based assay has been established for the phosphorylated protein glycogen synthetase kinase 3 (GSK3). The assay is based on a solid phase sandwich ELISA that detects endogenous levels of phosphorylated GSK3 using a phospho-GSK3 (Ser9) specific antibody (BioSource International, Inc.; Catalog #KHO0461). After incubation with cell lysates, the coated antibody captures the phosphorylated GSK3 protein. Following extensive washing, GSK3 polyclonal antibody is added to detect the captured phospho-GSK3 protein. Secondary antibody (anti-rabbit IgG-HRP) is then used to recognize the bound detection antibody. After the second incubation and washing to remove all the excess anti-rabbit IgG-HRP, a substrate solution is added, which is acted upon by the bound enzyme to produce color. The intensity of this colored product is directly proportional to the concentration of GSK-3β [pS9] present in the original specimen. MCF7 cells (ATCC HTB-22) were seeded into 96 well fate bottom plates at a density of 10000 cells/well. After 24 h 1 μl each of the compound dilutions (test compounds were dissolved as 10 mM solutions in dimethylsulfoxide (DMSO) and subsequently diluted) were added into each well of the 96 well plates and incubated for 48 h at 37° C. in a humidified atmosphere containing 5% CO2. Cells were harvested and lysed in cell extraction buffer (10 mM Tris, pH 7.4, 100 mM NaCl, 1 mM EDTA, 1 mM EGTA, 1 mM NaF, 20 mM Na4P2O7, 2 mM Na3VO4, 1% Triton X-100, 10 vol % glycerol, 0.1 vol % SDS, 0.5 vol % deoxycholate, 1 mM phenylmethylsulfonylfluoride (PMSF)). The lysate were centrifuged for 10 min. at 4° C. and the supernatant were transferred to a new tube. 50 μl of sample diluent (standard diluent buffer, Biosource) were added and 100 μl of cell lysate transferred into the tube and vortexed. 100 μl of each diluted cell lysate were added to the appropriate ELISA well plate and incubated for 3 h at room temperature. The plates were washed 4 times with 1× wash buffer (Biosource). 50 μl of detection antibody (GSK3 (Ser9) detection antibody; BioSource) were added to each well and incubated for 30 min. at room temperature. The washing procedure was repeated between each step. 100 μl of HRP-linked secondary antibody (anti-mouse IgG HRP-linked antibody) were added to each well and incubated for 30 min. at room temperature. 100 μl of TMB substrate (0.05 vol % 3,3′,5,5′ tetramethylbenzidine, 0.1 vol % hydrogen peroxide, complex polypeptides in a buffered solution; Biosource) were added to each well and incubated for 30 min. at room temperature. Finally 100 μl of Stop solution (0.05 vol % α and β unsaturated carbonyl compound) were added to each well and the plate were shaked gently for a few seconds. The absorbance was measured at λ=450 nm (Wallac Victor2; Perkin Elmer, USA) within 30 min. after adding the stop solution.
The analysis of the data was performed using a statistical program (Excel; Microsoft, USA) and the IC50 of pGSK3 inhibition was determined.
(In general: In an ELISA, binding on a coated surface is turned into a signal by an enzyme label.)

Another assay relates to A549 cells. The assay can be described thus: Cellular proliferation/cytotoxicity assay (Alamar Blue), A549. To be noted: Homo sapiens, 72 h, Alamar Blue (Resazurin), read-out: Anti-proliterative/Cytotoxic activity (A549 cells). Format: cell-based. The method in brief: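 OvCAR3 (10000 cells/well) or A549 (2000 cells/well) were dosed 24 h after seeding and exposed for 72 h at 37 °C, 5% CO2, in duplicate or more. Resazurin was added for 4 h and fluorescence read at 544/590 nm. Viability is relative to untreated 0.5% DMSO controls, with IC50 by non-linear regression.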
A general note: The colour change of resazurin is a common sign of viable cells or microbes.

Turning to `C#Cc1cnn2cc(-c3ccccc3)c(-c3ccc(CN4CCC(c5n[nH]c(-c6ccccn6)n5)CC4)cc3)nc12` [Example 33, 3-Ethynyl-6-phenyl-5-(4-{[4-(5-pyridin-2-yl-1H-1,2,4-triazol-3-yl)piperidin-1-yl]methyl}phenyl)pyrazolo[1,5-a]pyrimidine], the IC50 in the assay on phospho-GSK3 (Ser9) was 1 to 10 µM; with A549 cells it was less than 10 µM.

Consider `Cc1cccc(-c2nc(C3CCN(Cc4ccc(-c5nc6nccn6cc5-c5ccccc5)cc4)CC3)n[nH]2)n1` [Example 36, 7-[4-({4-[5-(6-Methylpyridin-2-yl)-1H-1,2,4-triazol-3-yl]piperidin-1-yl}methyl)phenyl]-6-phenylimidazo[1,2-a]pyrimidine], for which the IC50 in the assay with phospho-GSK3 (Ser9) is less than 1 µM; in the assay with A549 cells it was less than 10 µM.

Consider `Cc1ccnc(-c2nc(C3CCN(Cc4ccc(-c5nc6nccn6cc5-c5ccccc5)cc4)CC3)n[nH]2)c1` [Example 35, 7-[4-({4-[5-(4-Methylpyridin-2-yl)-1H-1,2,4-triazol-3-yl]piperidin-1-yl}methyl)phenyl]-6-phenylimidazo[1,2-a]pyrimidine], for which the values for the IC50 with phospho-GSK3 (Ser9) and in the assay on A549 cells were 1 to 10 µM and less than 10 µM, respectively.

For the molecule `CCc1cnn2cc(-c3ccccc3)c(-c3ccc(CN4CCC(c5n[nH]c(-c6ccccn6)n5)CC4)cc3)nc12` [Example 34, 3-Ethyl-6-phenyl-5-(4-{[4-(5-pyridin-2-yl-1H-1,2,4-triazol-3-yl)piperidin-1-yl]methyl}phenyl)pyrazolo[1,5-a]pyrimidine], the figures for the IC50 in the assay on phospho-GSK3 (Ser9) and with A549 cells were 1 to 10 µM and less than 10 µM, respectively.

Turning to `Clc1cnn2cc(-c3ccccc3)c(-c3ccc(CN4CCC(c5n[nH]c(-c6ccccn6)n5)CC4)cc3)nc12` [Example 30, 3-Chloro-6-phenyl-5-(4-{[4-(5-pyridin-2-yl-1H-1,2,4-triazol-3-yl)piperidin-1-yl]methyl}phenyl)pyrazolo[1,5-a]pyrimidine], the IC50 is less than 1 µM in the assay on phospho-GSK3 (Ser9) and less than 10 µM in the assay on A549 cells.

Regarding `Fc1cnc2nc(-c3ccc(CN4CCC(c5n[nH]c(-c6ncccn6)n5)CC4)cc3)c(-c3ccccc3)cn12` [Example 25, 3-fluoro-6-phenyl-7-(4-{[4-(5-pyrimidin-2-yl-1H-1,2,4-triazol-3-yl)piperidin-1-yl]methyl}phenyl)imidazo[1,2-a]pyrimidine], the IC50 with phospho-GSK3 (Ser9) and in the assay with A549 cells was more than 10 µM throughout.

`CC(c1ccc(-c2nc3nccn3cc2-c2ccccc2)cc1)N1CCC(c2n[nH]c(-c3ccccn3)n2)CC1` (racemic) [Example 23, 6-phenyl-7-(4-{1-[4-(5-pyridin-2-yl-1H-1,2,4-triazol-3-yl)piperidin-1-yl]ethyl}phenyl)imidazo[1,2-a]pyrimidine]: the IC50 in the assay with phospho-GSK3 (Ser9) and in the assay with A549 cells was more than 10 µM each time.

For `Fc1cnc2nc(-c3ccc(CN4CCC(c5n[nH]c(-c6cnccn6)n5)CC4)cc3)c(-c3ccccc3)cn12` [Example 24, 3-fluoro-6-phenyl-7-(4-{[4-(5-pyrazin-2-yl-1,2,4-triazol-3-yl)piperidin-1-yl]methyl}phenyl)imidazo[1,2-a]pyrimidine], the IC50 with phospho-GSK3 (Ser9) was 1 to 10 µM; with A549 cells, more than 10 µM.

`N#Cc1cnn2cc(-c3ccccc3)c(-c3ccc(CN4CCC(c5n[nH]c(-c6ccccn6)n5)CC4)cc3)nc12` [Example 32, 6-Phenyl-5-(4-{[4-(5-pyridin-2-yl-1H-1,2,4-triazol-3-yl)piperidin-1-yl]methyl}phenyl)pyrazolo[1,5-a]pyrimidine-3-carbonitrile]: the IC50 in the assay with phospho-GSK3 (Ser9) is less than 1 µM; in the assay with A549 cells, more than 10 µM.

Turning to `CCc1nc2nc(-c3ccc(CN4CCC(c5n[nH]c(-c6ccccn6)n5)CC4)cc3)c(-c3ccccc3)cn2n1` [Example 40, 2-Ethyl-6-phenyl-5-(4-{[4-(5-pyridin-2-yl-1H-1,2,4-triazol-3-yl)piperidin-1-yl]methyl}phenyl)[1,2,4]triazolo[1,5-a]pyrimidine], the values for the IC50 with phospho-GSK3 (Ser9) and with A549 cells were less than 1 µM and less than 10 µM, respectively.

`Brc1cnn2cc(-c3ccccc3)c(-c3ccc(CN4CCC(c5n[nH]c(-c6ccccn6)n5)CC4)cc3)nc12` [Example 31, 3-Bromo-6-phenyl-5-(4-{[4-(5-pyridin-2-yl-1H-1,2,4-triazol-3-yl)piperidin-1-yl]methyl}phenyl)pyrazolo[1,5-a]pyrimidine]: the IC50 in the assay with phospho-GSK3 (Ser9) is less than 1 µM; with A549 cells, less than 10 µM.
